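Values below derive from 48-hour exposures of cells grown in 96-well plates, with endpoints linearly interpolated between the two concentrations bracketing the appropriate inhibition level. The concentration for 50% growth inhibition is given as GI50. TGI: total growth inhibition.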
How the values were obtained:
Test in all cases: NCI anticancer screen, dose series, 48 h
LOX IMVI melanoma = test system: LOX IMVI melanoma
MDA-MB-468 breast = test system: MDA-MB-468 breast
SW-620 colon = test system: SW-620 colon
U251 CNS = test system: U251 CNS
SF-539 CNS = test system: SF-539 CNS
HOP-92 NSCLC = test system: HOP-92 NSCLC
PC-3 prostate = test system: PC-3 prostate
OVCAR-4 ovarian = test system: OVCAR-4 ovarian
ACHN renal = test system: ACHN renal
UACC-257 melanoma = test system: UACC-257 melanoma
DU-145 prostate = test system: DU-145 prostate
M14 melanoma = test system: M14 melanoma
SK-MEL-5 melanoma = test system: SK-MEL-5 melanoma
KM12 colon = test system: KM12 colon
OVCAR-3 ovarian = test system: OVCAR-3 ovarian
MALME-3M melanoma = test system: MALME-3M melanoma
MDA-MB-231 breast = test system: MDA-MB-231 breast
RXF 393 renal = test system: RXF 393 renal
CCRF-CEM leukemia = test system: CCRF-CEM leukemia
NCI-H23 lung = test system: NCI-H23 lung
SK-MEL-28 melanoma = test system: SK-MEL-28 melanoma
MOLT-4 leukemia = test system: MOLT-4 leukemia
SK-OV-3 ovarian = test system: SK-OV-3 ovarian
SF-295 CNS = test system: SF-295 CNS
IGROV1 ovarian = test system: IGROV1 ovarian
HCT-15 colon = test system: HCT-15 colon
MDA-MB-435 = test system: MDA-MB-435
RPMI-8226 leukemia = test system: RPMI-8226 leukemia
HOP-62 NSCLC = test system: HOP-62 NSCLC
HT29 colon = test system: HT29 colon
CAKI-1 renal = test system: CAKI-1 renal
SNB-19 CNS = test system: SNB-19 CNS
SN12C renal = test system: SN12C renal
NCI-H522 lung = test system: NCI-H522 lung
A549 NSCLC = test system: A549 NSCLC
K-562 leukemia = test system: K-562 leukemia
MCF7 breast = test system: MCF7 breast
T-47D breast = test system: T-47D breast
SR leukemia = test system: SR leukemia
NCI/ADR-RES ovarian = test system: NCI/ADR-RES ovarian
OVCAR-8 ovarian = test system: OVCAR-8 ovarian
SK-MEL-2 melanoma = test system: SK-MEL-2 melanoma
OVCAR-5 ovarian = test system: OVCAR-5 ovarian
NCI-H460 lung = test system: NCI-H460 lung
BT-549 breast = test system: BT-549 breast
HL-60(TB) leukemia = test system: HL-60(TB) leukemia
HCT-116 colon = test system: HCT-116 colon
786-0 renal = test system: 786-0 renal
SNB-75 CNS = test system: SNB-75 CNS
HCC-2998 colon = test system: HCC-2998 colon
HS 578T breast = test system: HS 578T breast
A498 renal = test system: A498 renal
SF-268 CNS = test system: SF-268 CNS
COLO 205 colon = test system: COLO 205 colon
UO-31 renal = test system: UO-31 renal
TK-10 renal = test system: TK-10 renal
EKVX NSCLC = test system: EKVX NSCLC
UACC-62 melanoma = test system: UACC-62 melanoma
NCI-H226 lung = test system: NCI-H226 lung

CC(=O)Nc1nc(-c2ccc(N3CCN(C)CC3)c(NS(=O)(=O)c3cccc4c(N(C)C)cccc34)c2)cs1
GI50 (LOX IMVI melanoma): 10.7 µM
TGI (LOX IMVI melanoma): 21.9 µM
GI50 (MDA-MB-468 breast): 10.7 µM
TGI (MDA-MB-468 breast): 22.3 µM
GI50 (SW-620 colon): 13.1 µM
TGI (SW-620 colon): 25.4 µM
GI50 (U251 CNS): 11.1 µM
TGI (U251 CNS): 23.3 µM
GI50 (SF-539 CNS): 9.78 µM
TGI (SF-539 CNS): 20.1 µM
GI50 (HOP-92 NSCLC): 9.15 µM
TGI (HOP-92 NSCLC): 20.4 µM
GI50 (PC-3 prostate): 11.2 µM
TGI (PC-3 prostate): 28.1 µM
GI50 (OVCAR-4 ovarian): 13.6 µM
TGI (OVCAR-4 ovarian): 28.2 µM
GI50 (ACHN renal): 13.7 µM
TGI (ACHN renal): 25.3 µM
GI50 (UACC-257 melanoma): 13.1 µM
TGI (UACC-257 melanoma): 25.8 µM
GI50 (DU-145 prostate): 14 µM
TGI (DU-145 prostate): 26 µM
GI50 (M14 melanoma): 12.8 µM
TGI (M14 melanoma): 25.8 µM
GI50 (SK-MEL-5 melanoma): 11.9 µM
TGI (SK-MEL-5 melanoma): 23.2 µM
GI50 (KM12 colon): 14.4 µM
TGI (KM12 colon): 28.4 µM
GI50 (OVCAR-3 ovarian): 11.5 µM
TGI (OVCAR-3 ovarian): 23.3 µM
GI50 (MALME-3M melanoma): 11.4 µM
TGI (MALME-3M melanoma): 22.4 µM
GI50 (MDA-MB-231 breast): 14.4 µM
TGI (MDA-MB-231 breast): 26.6 µM
GI50 (RXF 393 renal): 9.16 µM
TGI (RXF 393 renal): 20.3 µM
GI50 (CCRF-CEM leukemia): 13.2 µM
TGI (CCRF-CEM leukemia): 38.2 µM
GI50 (NCI-H23 lung): 11.3 µM
TGI (NCI-H23 lung): 23.6 µM
GI50 (SK-MEL-28 melanoma): 10.5 µM
TGI (SK-MEL-28 melanoma): 21.1 µM
GI50 (MOLT-4 leukemia): 13.3 µM
TGI (MOLT-4 leukemia): 37.9 µM
GI50 (SK-OV-3 ovarian): 13.2 µM
TGI (SK-OV-3 ovarian): 26.8 µM
GI50 (SF-295 CNS): 7.22 µM
TGI (SF-295 CNS): 18.3 µM
GI50 (IGROV1 ovarian): 14.2 µM
TGI (IGROV1 ovarian): 26.3 µM
GI50 (HCT-15 colon): 12.6 µM
TGI (HCT-15 colon): 25.4 µM
GI50 (MDA-MB-435): 13 µM
TGI (MDA-MB-435): 25.4 µM
GI50 (RPMI-8226 leukemia): 8.05 µM
TGI (RPMI-8226 leukemia): 53.6 µM
GI50 (HOP-62 NSCLC): 12.6 µM
TGI (HOP-62 NSCLC): 25.8 µM
GI50 (HT29 colon): 8.91 µM
TGI (HT29 colon): 21.3 µM
GI50 (CAKI-1 renal): 14 µM
TGI (CAKI-1 renal): 26.2 µM
GI50 (SNB-19 CNS): 12.2 µM
TGI (SNB-19 CNS): 23.5 µM
GI50 (SN12C renal): 12.1 µM
TGI (SN12C renal): 23.7 µM
GI50 (NCI-H522 lung): 12.6 µM
TGI (NCI-H522 lung): 25.6 µM
GI50 (A549 NSCLC): 14.2 µM
TGI (A549 NSCLC): 30.2 µM
GI50 (K-562 leukemia): 15.9 µM
TGI (K-562 leukemia): 85.5 µM
GI50 (MCF7 breast): 10.8 µM
TGI (MCF7 breast): 24 µM
GI50 (T-47D breast): 12 µM
TGI (T-47D breast): 28.9 µM
GI50 (SR leukemia): 3.27 µM
TGI (SR leukemia): 18.2 µM
GI50 (NCI/ADR-RES ovarian): 16.6 µM
TGI (NCI/ADR-RES ovarian): 37.1 µM
GI50 (OVCAR-8 ovarian): 16.9 µM
TGI (OVCAR-8 ovarian): 45.6 µM
GI50 (SK-MEL-2 melanoma): 13.6 µM
TGI (SK-MEL-2 melanoma): 26.2 µM
GI50 (OVCAR-5 ovarian): 12.6 µM
TGI (OVCAR-5 ovarian): 23.9 µM
GI50 (NCI-H460 lung): 14.4 µM
TGI (NCI-H460 lung): 29 µM
GI50 (BT-549 breast): 11.3 µM
TGI (BT-549 breast): 23.5 µM
GI50 (HL-60(TB) leukemia): 9.4 µM
TGI (HL-60(TB) leukemia): 24.9 µM
GI50 (HCT-116 colon): 12.3 µM
TGI (HCT-116 colon): 28.8 µM
GI50 (786-0 renal): 11.7 µM
TGI (786-0 renal): 24.6 µM
GI50 (SNB-75 CNS): 9.24 µM
TGI (SNB-75 CNS): 19.7 µM
GI50 (HCC-2998 colon): 12.4 µM
TGI (HCC-2998 colon): 24 µM
GI50 (HS 578T breast): 11.6 µM
TGI (HS 578T breast): 43.6 µM
GI50 (A498 renal): 13.1 µM
TGI (A498 renal): 24.5 µM
GI50 (SF-268 CNS): 12.4 µM
TGI (SF-268 CNS): 25.3 µM
GI50 (COLO 205 colon): 12.5 µM
TGI (COLO 205 colon): 27.9 µM
GI50 (UO-31 renal): 10.9 µM
TGI (UO-31 renal): 21.7 µM
GI50 (TK-10 renal): 16.4 µM
TGI (TK-10 renal): 29.1 µM
GI50 (EKVX NSCLC): 13.1 µM
TGI (EKVX NSCLC): 25.7 µM
GI50 (UACC-62 melanoma): 12.8 µM
TGI (UACC-62 melanoma): 24.1 µM
GI50 (NCI-H226 lung): 13.3 µM
TGI (NCI-H226 lung): 28.3 µM
